pIC50: −log10 of the molar value.
What was measured:
[1] = molecular target: LZK (Homo sapiens (Human), UniProt O43283); experiment: LZK biochemical assay (TR-FRET, MKK7 phosphorylation)
In short: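 Catalytic-domain LZK (10 nM) phosphorylated His-MKK7 (15 nM) with 15 μM ATP for 90 min at RT. Phospho-T275/S277 detected by Eu-anti-phospho-MKK7/XL665-anti-His TR-FRET after 16 h at 32° C, using the 665/Eu ratio. Buffer: 50 mM Hepes pH 7.5, 10 mM MgCl2, 1 mM DTT.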

[2] = molecular target: DLK (Homo sapiens (Human), UniProt Q12852); experiment: DLK biochemical assay (TR-FRET, MKK7 phosphorylation)
In short: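 Catalytic-domain DLK (10 nM) phosphorylates His-MKK7 (15 nM) with 60 μM ATP, 90 min at RT, in pH 7.5 HEPES buffer. Phospho-T275/S277 read by TR-FRET (Eu anti-phospho donor, XL665 anti-His acceptor) after 16 h detection, at 37° C. in 1536 or 4° C. in 384 format.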

Sequence of LZK (O43283 168-409): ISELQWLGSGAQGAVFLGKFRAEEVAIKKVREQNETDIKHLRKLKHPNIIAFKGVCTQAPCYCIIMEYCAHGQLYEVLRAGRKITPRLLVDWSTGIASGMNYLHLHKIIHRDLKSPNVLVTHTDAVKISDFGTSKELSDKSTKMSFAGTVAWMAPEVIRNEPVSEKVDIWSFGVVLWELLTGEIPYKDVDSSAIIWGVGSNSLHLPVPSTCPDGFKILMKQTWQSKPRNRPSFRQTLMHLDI
Sequence of DLK (Q12852 1-520): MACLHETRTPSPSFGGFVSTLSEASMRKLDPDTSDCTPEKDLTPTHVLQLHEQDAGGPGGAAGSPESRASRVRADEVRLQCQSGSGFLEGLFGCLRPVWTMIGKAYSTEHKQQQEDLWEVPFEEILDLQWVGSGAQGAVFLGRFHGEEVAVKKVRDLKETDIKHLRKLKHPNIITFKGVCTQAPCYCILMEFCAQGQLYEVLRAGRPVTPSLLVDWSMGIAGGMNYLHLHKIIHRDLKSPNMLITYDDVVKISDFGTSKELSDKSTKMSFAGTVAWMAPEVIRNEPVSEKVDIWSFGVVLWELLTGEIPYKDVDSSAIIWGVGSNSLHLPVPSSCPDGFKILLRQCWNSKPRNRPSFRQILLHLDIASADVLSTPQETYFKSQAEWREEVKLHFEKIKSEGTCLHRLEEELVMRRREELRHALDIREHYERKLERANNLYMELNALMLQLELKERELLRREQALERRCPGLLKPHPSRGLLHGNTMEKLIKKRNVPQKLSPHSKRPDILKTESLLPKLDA

Row | SMILES | pIC50 [1] | pIC50 [2]
1 | CC[C@H](NC(=O)c1cc(-c2cc(C(=O)NC(C)C)n3nc(N)nc3c2)cs1)c1ccc(F)cc1 [Compound 154] | 7.05 | 8.31
2 | CC(C)NC(=O)c1cc(-c2csc(C(=O)NC3CCCCC3)c2)cn2nc(N)nc12 [Compound 12] | 6.40 | 7.68
3 | Nc1nc2ccc(-c3csc(C(=O)NCC4CCCC4)c3)cn2n1 [Compound 190] | < 4.52 | 6.28
4 | COC[C@H](C)NC(=O)c1cc(-c2csc(C(=O)N[C@@H](C)c3ccccc3)c2)cn2nc(N)nc12 [Compound 70] | 5.85 | 7.12
5 | CC(C)NC(=O)c1cc(-c2csc(C(=O)NC(COC(F)(F)F)c3ccccc3)c2)cn2nc(N)nc12 (stereo not shown) [Compound 117] | 6.62 | 7.68
6 | Cc1ccccc1NC(=O)c1cc(-c2ccc3nc(N)nn3c2)cs1 [Compound 227] | < 4.52 | 6.08
7 | Nc1nc2ccc(-c3csc(C(=O)NCCCc4ccccc4)c3)cn2n1 [Compound 215] | 4.52 | 6.14
8 | CC(C)NC(=O)c1cc(-c2csc(C(=O)NCc3nc4ccccc4o3)c2)cc2nc(N)nn12 [Compound 151] | 7.00 | 7.44
9 | C[C@@H](NC(=O)c1cc(-c2ccc3nc(N)nn3c2)cs1)c1ccc(F)cc1 [Compound 298] | 5.38 | 6.46
10 | CCOc1cccc(CNC(=O)c2cc(-c3ccn4nc(N)nc4c3)cs2)c1 [Compound 367] | 4.55 | 6.52
11 | COC[C@H](C)NC(=O)c1cc(-c2csc(C(=O)NCc3ccc(F)cc3)c2)cn2nc(N)nc12 [Compound 68] | 5.80 | 6.52
12 | CN1CCN(Cc2ccc(CNC(=O)c3cc(-c4ccc5nc(N)nn5c4)cs3)cc2)CC1 [Compound 343] | 4.57 | 6.07
13 | CC(C)NC(=O)c1cc(-c2csc(C(=O)NCc3ccccc3)c2)cn2nc(N)nc12 [Compound 11] | 7.05 | 7.77
14 | CC[C@H](C)NC(=O)c1cc(-c2csc(C(=O)N[C@H](CC)c3ccc(F)cc3)c2)cn2nc(N)nc12 [Compound 133] | 6.62 | 8.00
15 | Nc1nc2ccc(-c3csc(C(=O)NC4CCOCC4)c3)cn2n1 [Compound 185] | 4.59 | 5.77
16 | CNC(=O)c1cc(-c2csc(C(=O)NCc3ccc(F)cc3)c2)cn2nc(N)nc12 [Compound 9] | 5.92 | 6.89
17 | COc1cccc([C@H](C)NC(=O)c2cc(-c3ccc4nc(N)nn4c3)cs2)c1 [Compound 263] | < 4.52 | 6.45
18 | C[C@H](NC(=O)c1cc(-c2cc(C(=O)NC3CCC3)c3nc(N)nn3c2)cs1)c1ccc(F)cc1 [Compound 60] | 6.53 | 8.28
19 | C[C@H](NC(=O)c1cc(-c2cc(C(=O)NC3CCNC3)c3nc(N)nn3c2)cs1)c1ccccc1 (single isomer, unassigned) [Compound 57] | 5.68 | 7.04
20 | COc1ccc2c(c1)C(NC(=O)c1cc(-c3ccc4nc(N)nn4c3)cs1)CC(C)(C)O2 (stereo not shown) [Compound 268] | 4.66 | 6.74

Row | SMILES | pIC50 [1] | pIC50 [2]
21 | CC[C@H](C)NC(=O)c1cc(-c2csc(C(=O)N[C@@H](C)c3ccc(F)cc3)c2)cc2nc(N)nn12 [Compound 160] | 7.28 | 8.20
22 | COc1ccc2oc(CNC(=O)c3cc(-c4ccc5nc(N)nn5c4)cs3)nc2c1 [Compound 247] | 5.42 | 6.10
23 | Cc1sc(C(=O)NCc2nc3ccccc3o2)cc1-c1ccc2nc(N)nn2c1 [Compound 313] | < 4.52 | 4.62
24 | COc1cccc(C(C)(C)NC(=O)c2cc(-c3ccc4nc(N)nn4c3)cs2)c1 [Compound 269] | < 4.52 | 6.23
25 | CC(C)NC(=O)c1cc(-c2csc(C(=O)N[C@H]3CCOc4ccccc43)c2)cn2nc(N)nc12 [Compound 120] | 6.96 | 8.16
26 | CC(C)NC(=O)c1cc(-c2csc(C(=O)N[C@@H](C)c3ccccc3)c2)cc2nc(N)nn12 [Compound 146] | 7.15 | 7.92
27 | Cc1ccc([C@H](C)NC(=O)c2cc(-c3cc(C(=O)N[C@H]4CCOC4)c4nc(N)nn4c3)cs2)cc1 [Compound 106] | 6.80 | 7.96
28 | Nc1nc2ccc(-c3csc(C(=O)NC4COC4)c3)cn2n1 [Compound 340] | < 4.52 | 5.37
29 | CCc1nnc(-c2cc(-c3csc(C(=O)N[C@@H](C)c4ccc(F)cc4)c3)cn3nc(N)nc23)o1 [Compound 396] | 6.01 | 6.51
30 | Nc1nc2ccc(-c3csc(C(=O)NCc4cccc(OCCN5CCOCC5)c4)c3)cn2n1 [Compound 207] | 4.57 | 6.33
31 | CC[C@H](NC(=O)c1cc(-c2cc(C(=O)NC3CCC3)c3nc(N)nn3c2)cs1)c1ccc(F)cc1 [Compound 137] | 6.52 | 8.01
32 | COc1ccc(CNC(=O)c2cc(-c3ccc4nc(N)nn4c3)cs2)cc1 [Compound 203] | 4.89 | 6.00
33 | CCc1nnc(-c2cc(-c3csc(C(=O)NCc4ccc(F)cc4)c3)cn3nc(N)nc23)s1 [Compound 394] | 5.60 | 6.39
34 | COc1cccc(CN(C)C(=O)c2cc(-c3ccc4nc(N)nn4c3)cs2)c1 [Compound 213] | 5.12 | 5.61
35 | CC[C@H](NC(=O)c1cc(-c2cc(C(=O)NC(C)CF)c3nc(N)nn3c2)cs1)c1ccc(F)cc1 (stereo partly shown) [Compound 144-1] | 7.38 | 8.34
36 | CC(NC(=O)c1cc(-c2csc(C(=O)N[C@@H](C)c3ccccc3)c2)cn2nc(N)nc12)C(F)(F)F (single isomer, unassigned) [Compound 72] | 5.21 | 7.05
37 | CC[C@H](NC(=O)c1cc(-c2cc(-c3nnc([C@@H](C)CO)s3)c3nc(N)nn3c2)cs1)c1ccc(F)cc1 [Compound 401] | 6.94 | 8.09
38 | Nc1nc2ccc(-c3csc(C(=O)NC4(c5ccc(F)cc5)CC4)c3)cn2n1 [Compound 299] | 5.60 | 6.92
39 | C[C@H](NC(=O)c1cc(-c2cc(C(=O)N[C@H]3CCOC3)c3nc(N)nn3c2)cs1)c1ccccc1 [Compound 102] | 7.15 | 8.37
40 | CC[C@H](C)NC(=O)c1cc(-c2csc(C(=O)NC3(c4ccc(F)cc4)CCCC3)c2)cn2nc(N)nc12 [Compound 143] | 6.96 | 8.05

Row | SMILES | pIC50 [1] | pIC50 [2]
41 | COC[C@H](C)NC(=O)c1cc(-c2csc(C(=O)N[C@@H](C)c3ccc(F)cc3)c2)cn2nc(N)nc12 [Compound 69] | 5.96 | 7.22
42 | CC(NC(=O)c1cc(-c2csc(C(=O)N[C@@H](C)c3ccc(F)cc3)c2)cn2nc(N)nc12)C(F)(F)F (mixture of isomers) [Compound 51] | 6.62 | 7.55
43 | C[C@H](NC(=O)c1cc(-c2cc(C(=O)N[C@@H](C)CO)c3nc(N)nn3c2)cs1)c1ccc(F)cc1 [Compound 26, 2-Amino-6-(5-{[(1S)-1-(4-fluorophenyl)ethyl]carbamoyl}thiophen-3-yl)-N-[(2S)-1-hydroxypropan-2-yl][1,2,4]triazolo[1,5-a]pyridine-8-carboxamide] | 7.17 | 8.19
44 | C[C@@H](CO)NC(=O)c1cc(-c2csc(C(=O)NCc3ccccc3)c2)cn2nc(N)nc12 [Compound 21] | 7.40 | 8.03
45 | C[C@H]1CCC[C@@H](NC(=O)c2cc(-c3ccc4nc(N)nn4c3)cs2)C1 (single isomer, unassigned) [Compound 200] | < 4.52 | 6.25
46 | CC[C@H](NC(=O)c1cc(-c2cc(C(=O)N[C@H]3CCOC3)n3nc(N)nc3c2)cs1)c1ccc(F)cc1 [Compound 162] | 7.11 | 8.46
47 | COc1cc(CNC(=O)c2cc(-c3ccc4nc(N)nn4c3)cs2)ccc1F [Compound 231] | 4.96 | 6.07
48 | Nc1nc2c(C(=O)NC3COC3)cc(-c3csc(C(=O)NCc4ccccc4)c3)cn2n1 [Compound 64] | 5.15 | 6.70
49 | Cc1ccc([C@H](C)NC(=O)c2cc(-c3ccc4nc(N)nn4c3)cs2)cc1 [Compound 349] | 4.62 | 6.64
50 | Cc1cccc(C)c1NC(=O)c1cc(-c2ccn3nc(N)nc3c2)cs1 [Compound 368] | 4.89 | 6.17
51 | Nc1nc2ccc(-c3csc(C(=O)NCc4cccc(F)c4)c3)cn2n1 [Compound 216] | 5.23 | 5.94
52 | Nc1nc2ccc(-c3csc(C(=O)NCc4ccccc4C(F)(F)F)c3)cn2n1 [Compound 220] | 4.66 | 6.24
53 | COc1cccc(CNC(=O)c2cc(-c3cc(F)c4nc(N)nn4c3)cs2)c1 [Compound 381] | < 4.52 | 6.42
54 | CC[C@H](NC(=O)c1cc(-c2csc(C(=O)N[C@@H](C)c3ccc(F)cc3)c2)cn2nc(N)nc12)C(F)(F)F [Compound 144-5] | 5.59 | 6.20
55 | C[C@H](NC(=O)c1cc(-c2ccc3nc(N)nn3c2)cs1)c1ccc(Cl)cc1 [Compound 355] | < 4.52 | 6.68
56 | Nc1nc2ccc(-c3csc(C(=O)NCc4cnc5ccccn45)c3)cn2n1 [Compound 261] | 4.85 | 6.29
57 | C[C@H](NC(=O)c1cc(-c2cc(F)c3nc(N)nn3c2)cs1)c1ccc(F)cc1 [Compound 383] | < 4.52 | < 4.52
58 | CCC(C)c1nnc(-c2cc(-c3csc(C(=O)N[C@@H](CC)c4ccc(F)cc4)c3)cn3nc(N)nc23)s1 (stereo partly shown) [Compound 398] | 5.41 | 6.06
59 | Nc1nc2ccc(-c3csc(C(=O)NC4CCCCC4)c3)cn2n1 [Compound 169] | < 4.52 | 5.96

Source: US20230382904A1, “SUBSTITUTED 4-([1,2,4]TRIAZOLO[1,5-a]PYRIDIN-6-YL)THIOPHENE-2-CARBOXAMIDE DERIVATIVES AND USE THEREOF” (The Johns Hopkins University, priority 2020, published 2023)
